Literature values in patent US20180255779A1, “TRIAZOLE FORMULATIONS” (Vive Crop Protection Inc., priority 2013, published 2018).
Where two headings read alike, the source gives them in different places.

Legend:
[1] = not given; remark: listed apart in the source
[2] = octanol-water

SMILES: Fc1ccc([C@]2(Cn3cncn3)O[C@H]2c2ccccc2Cl)cc1 (racemic) [Epoxiconazole, (2RS,3SR)-1-[3-(2-chlorophenyl)-2,3-epoxy-2-(4-fluorophenyl)propyl]-1H-1,2,4-triazole]
- Photolytic Stability, DT50 (pH 7): DT50: 52 d (aqueous photolysis at pH 7)

SMILES: CCCCC(C#N)(Cn1cncn1)c1ccc(Cl)cc1 (racemic) [Myclobutanil, (RS)-2-(4-chlorophenyl)-2-(1H-1,2,4-triazol-1-ylmethyl)hexanenitrile]
- Solubility ([1]; heptane at 20° C.): 1020 mg/L (heptane at 20° C.)
- Solubility ([1]; methanol and acetone, both at 20° C.): 250000 mg/L (methanol and acetone, both at 20° C.)
- Solubility ([1]; water at 20° C.): 132 mg/L (water at 20° C.)
- Kow, log P [2]: log P: 2.89
- Photolytic Stability, DT50 (aqueous photolysis at pH 7): DT50: 15 d (aqueous photolysis at pH 7)

SMILES: FC(F)C(F)(F)OCC(Cn1cncn1)c1ccc(Cl)cc1Cl (racemic) [Tetraconazole, (RS)-2-(2,4-dichlorophenyl)-3-(1H-1,2,4-triazol-1-yl)propyl 1,1,2,2-tetrafluoroethyl ether]
- Photolytic Stability, DT50 (pH 7): 217 days

SMILES: CC1(C)CC/C(=C\c2ccc(Cl)cc2)C1(O)Cn1cncn1 (racemic) [Triticonazole, (RS)-(E)-5-(4-chlorobenzylidene)-2,2-dimethyl-1-(1H-1,2,4-triazol-1-ylmethyl)cyclopentanol]
- Photolytic Stability, DT50 (pH 7): DT50: 3.1 d (aqueous photolysis at pH 7)

SMILES: CC(C1CC1)C(O)(Cn1cncn1)c1ccc(Cl)cc1 (stereo not drawn) [Cyproconazole, (2RS,3RS;2RS,3SR)-2-(4-chlorophenyl)-3-cyclopropyl-1-(1H-1,2,4-triazol-1-yl)butan-2-ol]
- Photolytic Stability, DT50 (pH 7): DT 50: 40 d (aqueous photolysis at pH 7)

SMILES: CC1COC(Cn2cncn2)(c2ccc(Oc3ccc(Cl)cc3)cc2Cl)O1 (stereo not drawn) [Difenoconazole, 3-chloro-4-[(2RS,4RS;2RS,4SR)-4-methyl-2-(1H-1,2,4-triazol-1-ylmethyl)-1,3-dioxolan-2-yl]phenyl 4-chlorophenyl ether]
- Kow, log P [2]: log P: 4.36

SMILES: CCCC1COC(Cn2cncn2)(c2ccc(Cl)cc2Cl)O1 (stereo not drawn) [Propiconazole, (2RS,4RS;2RS,4SR)-1-[2-(2,4-dichlorophenyl)-4-propyl-1,3-dioxolan-2-ylmethyl]-1H-1,2,4-triazole]
- Solubility ([1]; heptane at 20° C.): 1585 mg/L (heptane at 20° C.)
- Solubility ([1]; water at 20° C.): 150 mg/L (water at 20° C.)
- Kow, log P [2]: log P: 3.72
